For assay [1], the target named is T1, acetylcholinesterase of human erythrocyte origin (Homo sapiens, UniProt P22303).
T1 construct: Acetylcholinesterase of human erythrocyte origin (Sigma Chemical Co.); purchased Sigma Chemical Co; host or cells: human erythrocytes (natural source)
Kind of assay: Measurement of acetylcholinesterase-inhibiting action (acetylthiocholine / Ellman method), Experimental Example 1. It is filed as biochemical. The following applies: at least 3 experiments. As for the experimental part:
Acetylcholinesterase-inhibiting action of the compounds disclosed in Reference Examples was measured using acetylcholinesterase of human erythrocyte origin according to the acetylthiocholine method (Ellman method).
Acetylcholinesterase of human erythrocyte origin (Sigma Chemical Co.) was dissolved in distilled water at a concentration of 0.2 IU/mL to give an enzyme authentic sample. To a 96-well microplate was dispensed 20 μL of drug solution, 30 μL of 80 mM Tris-HCl (pH 7.4), 50 μL of enzyme authentic sample and 50 μL of 5 mM 5,5-dithio-bis(2-nitrobenzoic acid) (Sigma Chemical Co.), and the plate was shaken for 10 seconds. Then, 50 μL of acetylthiocholine iodide (Sigma Chemical Co.) was added, and the plate was again shaken. Immediately after shaking, increase of extinction at […] was measured at intervals of 30 seconds for 10 minutes. The enzyme activity was determined according to the following equation.
The experiment was repeated at least 3 times for each compound to obtain 50% inhibitory concentration (IC50). Moreover, in the same manner as mentioned above, acetylcholinesterase-inhibiting activity of distigmine was measured.
A general note: Ellman's reagent forms a yellow product with free thiols.

For assay [2], the system named is guinea pigs. Kind of assay: Effect on urination efficiency in guinea pigs, Experimental Example 3. The format is in vivo, Hartley male guinea pigs. The following applies: for Efficiency of Urination (%) Before adm. / Efficiency of Urination (%) After adm. / Improvement of Efficiency (%): guinea pig; for Efficiency of Urination (%) Before adm.: before administration; for Efficiency of Urination (%) After adm. / Improvement of Efficiency (%): 30 minutes after administration. The source says: Effect of the compounds of Reference Examples on urination efficiency was examined using Hartley male guinea pigs. Six to ten Hartley male guinea pigs weighing 346.5±3.5 g (SLC) were employed in each treated group. Guinea pigs were anesthetized with urethane, and held, and the bladder was exposed. Two polyethylene tubes (PE-50 and PE-100) were inserted into the bladder. One (PE-50) of the tubes was used in infusion of physiological saline, and the other (PE-100) was used for measurement of the internal pressure of the bladder. Saline was infused continuously at a flow rate of 0.3 mL/min. The infusion was stopped at the time when intermittent urination was confirmed at least 3 times, and the whole saline in bladder was removed. Again, infusion was started, and stopped at the time when a rise of the pressure in bladder was confirmed immediately before urination, and the time required for infusion and the weight of excreted urine were measured. Efficiency of urination was calculated from the following equation. Efficiency of urination (%)=100×Excreted volume (mL)/Infusion time (min)×0.3 (mL/min)
Measurement was made at least 2 times before administration of the test compound, and then the test compound was dissolved in distilled water and administered intravenously. […] Effect by administration of solvents was also confirmed.
The average measured value before administration of the test compounds was regarded as the value before administration, and applied to the paired-t test for a significant difference test with the value after the administration. (** p<0.01, * p<0.05)

Assay [3] addresses T2, human erythrocyte-derived acetylcholine esterase (Homo sapiens, UniProt P22303).
T2 construct: Acetylcholinesterase of human erythrocyte origin (Sigma Chemical Co.); purchased Sigma Chemical Co; host or cells: human erythrocytes (natural source)
Kind of assay: Determination of the activity to inhibit the acetylcholine esterase of the crystals (Ellman method), Experimental Example 5. It is filed as biochemical. The note with it: at least three experiments. The protocol:
The activity to inhibit the acetylcholine esterase of the crystals obtained in Example 1 was determined according to the acetylthiocholine method (the Ellman method) by the use of a human erythrocyte-derived acetylcholine esterase.
A human erythrocyte-derived acetylcholine esterase (Sigma Chemical Company) was dissolved into distilled water to obtain a standard enzyme preparation with an enzyme concentration of 0.2 IU/mL. […]
The activity to inhibit the acetylcholine esterase of the crystals obtained in Example 1 was determined according to the acetylthiocholine method (the ElIman method) by the use of a human erythrocyte-derived acetylcholine esterase.
A human erythrocyte-derived acetylcholine esterase (Sigma Chemical Company) was dissolved into distilled water to obtain a standard enzyme preparation with an enzyme concentration of 0.2 IU/mL. […] As soon as 50 μl of a 4-mM solution of acetylthiocholine iodide (Sigma Chemical Company) was added and shaking was started again, every increment in absorbance at the wavelength of 414 nm at an interval of 30 seconds was determined for 10 minutes. R=5.74×10^−7×ΔA (wherein R indicates an enzyme activity (mol) and ΔA indicates an increment in absorbance at the wavelength of 414 nm). […] Furthermore, the activity to inhibit the acetylcholine esterase of distigmine was determined in a manner similar to that described in the above method.

Assay [4] deals with urinary bladder. Kind of assay: Potentiation effect for rhythmic contraction of urinary bladder in guinea pig, Experimental Example 2. The format is in vivo, Hartley male guinea pigs. The following applies: Cavia porcellus, iv, read-out: AUC200 (mg/kg, i.v.). As for the experimental part: Potentiation effect of the compounds disclosed in Reference Examples for rhythmic contraction of urinary bladder was examined using Hartley male guinea pigs. Hartley male guinea pigs (SLC) weighing about 300 g were anesthetized with urethane (1.2 g/kg, i.p.), held, and incised at the midline of abdomen to expose the bladder. The urethra was ligated, and a polyethylene tube (PE-50) was inserted into the bladder. The internal pressure of the bladder was measured with a blood pressure amplifier (Nippon Koden), and the data was collected on a personal computer through an A/D converter (MP-30, Biopac Systems). A proper amount of physiological saline was injected into the bladder through a cannula to induce rhythmic contraction of the to bladder.
The area (AUC) that is formed by a curve of the internal pressure of the bladder and a base line was calculated through analytical software (Studentlab pro 2.1.5, Biopac Systems) to evaluate the effect of the test compounds. The curve of the internal pressure is made based on the bladder contraction immediately before administration of the test compound and the first contraction 5 minutes after the administration. From the dose-dependent curve of AUC, the dose at which AUC before drug administration was increased 2 times (AUC200) was calculated to determine potency of contraction-enhancing effect of the test compounds for the muscle of urinary bladder. In addition, the potency of contraction-enhancing effect of […] for the muscle of bladder was determined in the same manner as mentioned above.

Marks after values point to notes of the source that are not given here.

This is an account of results in patent US8252814B2, “Agents and crystals for improving excretory potency of urinary bladder” (priority 1998, dated 2012).

T2 sequence (P22303 32-617 isoform P22303-2 limits assumed): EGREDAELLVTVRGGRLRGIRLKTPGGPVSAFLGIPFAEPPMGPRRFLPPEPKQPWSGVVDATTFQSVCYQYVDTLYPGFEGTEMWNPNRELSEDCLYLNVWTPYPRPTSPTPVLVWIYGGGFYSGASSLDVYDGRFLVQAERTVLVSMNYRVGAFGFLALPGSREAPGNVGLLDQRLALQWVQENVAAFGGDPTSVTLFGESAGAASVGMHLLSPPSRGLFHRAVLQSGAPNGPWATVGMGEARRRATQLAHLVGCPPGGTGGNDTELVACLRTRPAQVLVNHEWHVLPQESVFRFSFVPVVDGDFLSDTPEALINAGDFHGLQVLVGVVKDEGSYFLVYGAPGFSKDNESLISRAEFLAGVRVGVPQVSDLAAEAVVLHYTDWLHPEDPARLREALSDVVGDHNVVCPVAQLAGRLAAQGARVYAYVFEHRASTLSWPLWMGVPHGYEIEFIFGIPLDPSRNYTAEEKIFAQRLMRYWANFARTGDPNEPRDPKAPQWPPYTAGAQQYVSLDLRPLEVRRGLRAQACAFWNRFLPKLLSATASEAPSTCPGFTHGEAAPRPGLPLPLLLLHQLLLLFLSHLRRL
T1 sequence (P22303 32-617 isoform P22303-2 limits assumed): as above

As a reminder, the IC50 is the midpoint of a concentration-inhibition curve. For `CN(CCCCCCN(C)C(=O)Oc1ccc[n+](C)c1)C(=O)Oc1ccc[n+](C)c1` [Distigmine, reference compound], the results for the IC50 in assay [1] and in assay [3] were 723 nM and 652 nM, respectively. The “improvement of urination efficiency (in words)” value in assay [2] (conclusion from Table 7) is “poor and it makes the efficiency worse at a high dose”. Further, the “Efficiency of Urination (%) Before adm.” value in assay [2] (0.1 mg/kg i.v. group) came to 79.1 ± 5.7%; in assay [2] (0.3 mg/kg i.v. group (distigmine)) it was 67.4 ± 4.3%; in assay [2] (1 mg/kg i.v. group (distigmine)), 78.6 ± 6.7%; in assay [2] (3 mg/kg i.v. group (distigmine)), 68.6 ± 7.0%. In addition, the “Efficiency of Urination (%) After adm.” value in assay [2] (0.1 mg/kg i.v.) came out at 90.9 ± 2.7%; in assay [2] (0.3 mg/kg i.v.) it was 75.3 ± 3.7%; in assay [2] (1 mg/kg i.v.), 67.8 ± 4.6%; in assay [2] (3 mg/kg i.v.), 48.1 ± 8.5%. Further, the “Improvement of Efficiency (%)” value is given as 20.4% in assay [2] (0.1 mg/kg i.v.), 14.7% in assay [2] (0.3 mg/kg i.v.), −11.6% in assay [2] (1 mg/kg i.v.) and −30.9** % in assay [2] (3 mg/kg i.v.). Further, in assay [4], the ED (2-fold bladder contraction AUC) is 0.1 mg/kg.
